Reference: patent publication US8105581B2, “Compositions and methods for inducing neuronal differentiation” (The Scripps Research Institute, priority 2005, dated 2012)
“Also recorded” adds a separate entry of the source.

Legend:
Type in all cases: cell-based, rat
[1] = tested on: HCN cells (adult hippocampal neural progenitor cells); experiment: Neuronal and astroglial differentiation of HCN cells by TuJ1/GFAP double-immunofluorescence staining; conditions: for Relative activity at ECmax: ECmax relative to Compound A, compound 2 (100) and DMSO (0 or no active, N/A), AP = Anti-proliferation
Experimental: Cell Culture: Neural precursor cells isolated from the hippocampus of adult female Fischer 344 rats^(1) were maintained in N2 supplemented (Invitrogen) DMEM: Ham's F12 (Omega scientific) medium containing 20 ng/mL FGF-2 (PeproTech Inc.) HCN cells were expanded and maintained in an undifferentiated state on a polyornithine/laminin-coated dish in a defined serum-free growth medium (DMEM/F12 supplemented with N2 and 20 ng/ml bFGF) in a homogeneous monolayer. Neuronal and astroglial differentiation was analyzed directly with double-immunofluorescence staining of βIII tubulin (TuJ1) as a neuronal marker and glial fibrillary acidic protein (GFAP) as an astroglial marker. A combinatorial heterocycle library of 50,000 compounds was screened using undifferentiated, early passage HCN cells plated onto polyornithine/lamin-coated 384-well plates at a density of 6,000 cells/well in complete growth medium. After overnight incubation, the medium was exchanged with bFGF-free basal medium, and 5 μM of the compounds (final concentration) were added to each well. After treatment with compound for four days, cells were fixed and stained with βIII tubulin/TUJ1 and GFAP antibodies, the morphology of positively stained cells was analyzed, and the number of cells with the desired phenotypes was counted.
(§1) Immunocytochenzistry: Cells were fixed with 4% paraformaldehyde for 30 min and washed with PBS, and then blocked for 1 hour at room temperature in PBS containing 0.3% Triton X-100 and 5% donkey serum (PBS-B). Samples were incubated in PBS-B containing dilutions (1:1500) of two primary antibodies for 24 hrs at 4° C., washed three times with PBS, and incubated w secondary antibodies conjugated to Cy3 (Jackson ImmunoResearch Laboratories, Inc.) Alexa Fluor 488 (Molecular Probe Inc.). The samples then were treated with 1 μg/mL 4′,6-diamidino-2-phenylindole (DAPI) for 30 min at room temperature, and then washed three times with PBS.
A combinatorial heterocycle library of 50,000 compounds was screened using undifferentiated, early passage HCN cells plated onto polyornithine/lamin-coated 384-well plates at a density of 6,000 cells/well in complete growth medium. After overnight incubation, the medium was exchanged with bFGF-free basal medium, and 5 μM of the compounds (final concentration) were added to each well. After treatment with compound for four days, cells were fixed and stained with βIII tubulin/TUJ1 and GFAP antibodies, the morphology of positively stained cells was analyzed, and the number of cells with the desired phenotypes was counted.

[2] = tested on: HCN cells; experiment: BrdU proliferation assay; conditions: HCN cells treated 5 hours in bFGF-free N2 medium; 15, 10, 5 μM Compound A or 1, 0.5, 0.25 μM RA; BrdU 2 hours
Experimental: BrdU proliferation assay: Cells were treated with compounds (Compound A and
(§2) RA). After 5 hours, the medium was changed and 10 μM of 5-bromo-2′-deoxy-uridine (BrdU) (final concentration) was added to each well. After treatment with BrdU for 2 hours, cells were fixed, washed three times with 01M Tris-buffer, and incubated in 2N HCl at 37° for 30 min. After treatment with 0.1M borate buffer (pH 8.5) for 10 min, cells were washed three times with PBS and treated with blocking buffer (PBS containing 0.3% Triton-X and 5% donkey serum) for 60 min. After overnight incubation with anti-BrdU (1:400) antibody, cells were washed with PBS and incubated with secondary antibody conjugated to Cy3 (1:1000) for 2 hours. After washing with PBS, BrdU-positive cells were counted.

[3] = tested on: Sox2; experiment: Semi-quantitative RT-PCR of marker genes: Sox2; conditions: HCN cells, 10 μM Compound A versus compound-free N2 medium
[4] = tested on: NeuroD1; experiment: Semi-quantitative RT-PCR of marker genes: NeuroD1; conditions: HCN cells, 10 μM Compound A versus compound-free N2 medium
[5] = tested on: HCN cells; experiment: Astroglial differentiation of HCN cells induced by LIF/BMP2/FBS; conditions: 50 ng/ml LIF, 50 ng/ml BMP2 and 0.5% FBS; compound A 20 μM, RA 5 μM; listed as Compound A
[6] = tested on: HCN cells; experiment: Cytotoxic effects on HCN cells
[7] = tested on: NeuroD1 and NeuN; experiment: BrdU labeling with immunocytochemistry to detect NeuroD1 and NeuN; conditions: HCN cells (FIG. 4)
Experimental: as §1, §2

[8] = HCN cells treated with Compound A

Molecule | Relative activity at ECmax [1] | cells differentiated into neuronal cells (immunostaining with TuJ1 and characteristic neuronal morphology) [1, 8] | neuronal differentiation-inducing activity (screen and sublibrary) ([1]; HCN cells, bFGF-free basal medium, four days) | lineage specificity: GFAP-positive (astroglial) versus neuronal cells after treatment ([1]; four days in N2 media, 10 μM Compound A or 2 μM RA (FIG. 2)) | staining for later stage neuronal markers neurofilament-H and Map2(a+b) ([1]; seven days of treatment with 10 μM Compound A) | cell proliferation (BrdU-positive cells) [2] | Sox2 (neural progenitor marker) mRNA level [3] | NeuroD1 (neuronal cell marker) mRNA level [4] | inhibition of astroglial differentiation induced by LIF and BMP2 [5] | visible cytotoxic effects [6, 8] | expression of neuron-specific marker genes NeuroD1 and NeuN [7] | cytotoxicity ([6]; over 2 μM in growth factor (bFGF or LIF/BMP2)-free basal medium)
CCOC(=O)c1ccc(N(C)c2csc(-c3ccccc3)n2)cc1 [Compound 2] | 100 | more than 90% | highest activity among the analogues tested | GFAP-positive cells were very rarely detected | positive staining | significantly slowed cell proliferation | down-regulated | up-regulated | can also inhibit astroglial differentiation; also recorded: can competitively suppress astrogliogenesis by LIF/BMP2/FBS in a dose-dependent manner | without visible cytotoxic effects | induces expression of neuron-specific marker genes | –
CC1=C(/C=C/C(C)=C/C=C/C(C)=C/C(=O)O)C(C)(C)CCC1 [RA, retinoic acid, reference compound] | – | – | – | – | – | – | – | – | – | – | – | significant cytotoxicity
ethyl 4-(2-phenylthiazol-4-ylamino) benzoate [Compound 1] | 10 | – | – | – | – | – | – | – | – | – | – | –
